Data as given in the NIST ThermoML archive (doi:10.1016/j.jct.2016.12.032).

Test: xn = mol fraction of the nth substance listed
Conditions: 100 kPa, Liquid; for viscosity: Capillary tube (Ostwald / Ubbelohde) method; for mass density: Vibrating tube method

O=C1CCCCO1 [1-oxacyclohexan-2-one] + CCCC[n+]1ccn(C)c1.O=S(=O)([N-]S(=O)(=O)C(F)(F)F)C(F)(F)F
Conditions | mass density [kg/m3] | viscosity [mPa·s]
293.15 K, x2 = 0 | 1108.53 | 3.68
293.15 K, x2 = 0.0532 | 1156.68 | 4.6
293.15 K, x2 = 0.1004 | 1196.3 | 5.91
293.15 K, x2 = 0.1504 | 1229.63 | 7.47
293.15 K, x2 = 0.1999 | 1257.2 | 8.95
293.15 K, x2 = 0.2988 | 1300.9 | 13.08
293.15 K, x2 = 0.4006 | 1337.77 | 17.95
293.15 K, x2 = 0.5005 | 1362.9 | 23.77
293.15 K, x2 = 0.5999 | 1384.82 | 30.89
293.15 K, x2 = 0.7 | 1402.18 | 37.58
293.15 K, x2 = 0.8013 | 1418.26 | 44.8
293.15 K, x2 = 0.8986 | 1429.23 | 52.57
298.15 K, x2 = 0 | 1103.96 | 3.3
298.15 K, x2 = 0.0532 | 1152.03 | 4.09
298.15 K, x2 = 0.1004 | 1191.61 | 5.26
298.15 K, x2 = 0.1504 | 1224.89 | 6.47
298.15 K, x2 = 0.1999 | 1252.42 | 7.78
298.15 K, x2 = 0.2988 | 1296.08 | 11.15
298.15 K, x2 = 0.4006 | 1332.91 | 15.14
298.15 K, x2 = 0.5005 | 1358.02 | 19.8
298.15 K, x2 = 0.5999 | 1379.92 | 25.62
298.15 K, x2 = 0.7 | 1397.27 | 31.17
298.15 K, x2 = 0.8013 | 1413.33 | 37.32
298.15 K, x2 = 0.8986 | 1424.29 | 43.18
303.15 K, x2 = 0 | 1099.44 | 2.98
303.15 K, x2 = 0.0532 | 1147.37 | 3.7
303.15 K, x2 = 0.1004 | 1186.86 | 4.58
303.15 K, x2 = 0.1504 | 1220.09 | 5.64
303.15 K, x2 = 0.1999 | 1247.58 | 6.74
303.15 K, x2 = 0.2988 | 1291.17 | 9.63
303.15 K, x2 = 0.4006 | 1327.96 | 12.92
303.15 K, x2 = 0.5005 | 1353.03 | 16.77
303.15 K, x2 = 0.5999 | 1374.9 | 21.34
303.15 K, x2 = 0.7 | 1392.22 | 25.71
303.15 K, x2 = 0.8013 | 1408.28 | 30.93
303.15 K, x2 = 0.8986 | 1419.22 | 35.78
308.15 K, x2 = 0 | 1094.83 | 2.7
308.15 K, x2 = 0.0532 | 1142.72 | 3.21
308.15 K, x2 = 0.1004 | 1182.16 | 4.08
308.15 K, x2 = 0.1504 | 1215.34 | 5.09
308.15 K, x2 = 0.1999 | 1242.79 | 6.06
308.15 K, x2 = 0.2988 | 1286.33 | 8.42
308.15 K, x2 = 0.4006 | 1323.08 | 11.04
308.15 K, x2 = 0.5005 | 1348.13 | 14.16
308.15 K, x2 = 0.5999 | 1369.99 | 18.33
308.15 K, x2 = 0.7 | 1387.29 | 21.9
308.15 K, x2 = 0.8013 | 1403.33 | 25.49
308.15 K, x2 = 0.8986 | 1414.26 | 29.16
313.15 K, x2 = 0 | 1090.27 | 2.47
313.15 K, x2 = 0.0532 | 1138.1 | 2.9
313.15 K, x2 = 0.1004 | 1177.47 | 3.67
313.15 K, x2 = 0.1504 | 1210.6 | 4.49
313.15 K, x2 = 0.1999 | 1238.01 | 5.31
313.15 K, x2 = 0.2988 | 1281.5 | 7.36
313.15 K, x2 = 0.4006 | 1318.2 | 9.61
313.15 K, x2 = 0.5005 | 1343.21 | 12.24
313.15 K, x2 = 0.5999 | 1365.03 | 15.74
313.15 K, x2 = 0.7 | 1382.31 | 18.59
313.15 K, x2 = 0.8013 | 1398.33 | 21.65
313.15 K, x2 = 0.8986 | 1409.25 | 24.7
318.15 K, x2 = 0 | 1085.71 | 2.25
318.15 K, x2 = 0.0532 | 1133.47 | 2.63
318.15 K, x2 = 0.1004 | 1172.79 | 3.24
318.15 K, x2 = 0.1504 | 1205.87 | 4.02
318.15 K, x2 = 0.1999 | 1233.25 | 4.72
318.15 K, x2 = 0.2988 | 1276.69 | 6.55
318.15 K, x2 = 0.4006 | 1313.34 | 8.49
318.15 K, x2 = 0.5005 | 1338.33 | 10.65
318.15 K, x2 = 0.5999 | 1360.13 | 13.7
318.15 K, x2 = 0.7 | 1377.38 | 15.98
318.15 K, x2 = 0.8013 | 1393.37 | 18.79
318.15 K, x2 = 0.8986 | 1404.27 | 21.14
323.15 K, x2 = 0 | 1081.16 | 2.09
323.15 K, x2 = 0.0532 | 1128.86 | 2.44
323.15 K, x2 = 0.1004 | 1168.12 | 2.96
323.15 K, x2 = 0.1504 | 1201.16 | 3.63
323.15 K, x2 = 0.1999 | 1228.6 | 4.26
323.15 K, x2 = 0.2988 | 1271.85 | 5.82
323.15 K, x2 = 0.4006 | 1308.45 | 7.49
323.15 K, x2 = 0.5005 | 1333.4 | 9.29
323.15 K, x2 = 0.5999 | 1355.18 | 11.2
323.15 K, x2 = 0.7 | 1372.41 | 13.85
323.15 K, x2 = 0.8013 | 1388.38 | 15.68
323.15 K, x2 = 0.8986 | 1399.26 | 17.85
